Assay results reported in patent US20120141597A1 (priority 2009, published 2012).

Test system: Leptosphaeria nodorum (LEPTNO)
Assay: In vitro fungitoxicity (growth inhibition) in copper-minus and copper-plus liquid medium
Format: cell-based
Conditions: CuCl2 10 μM, no test compound, copper-plus vs copper-minus medium, across experiments
Method: In vitro fungitoxicity assays against Leptosphaeria nodorum (LEPTNO) were conducted using the liquid growth medium described by Coursen and Sisler (American Journal of Botany 1960, 47, 541-549) except that copper micronutrient, normally included as CuSO4, was omitted. The medium, termed “copper-minus”, was prepared by dissolving 10 g glucose, 1.5 g K2HPO4, 2 g KH2PO4 and 1 g (NH4)2SO4 in 1 liter of deionized water and treating the solution with 0.5 g Chelex 100 resin (Bio-Rad Analytical grade, 50-100 mesh, sodium form, cat#142-2822) by stirring at room temperature for 1 h. MgSO4.7H2O (0.5 g) was added, and stirring was continued for a further hour. Trace elements (minus CuSO4), and vitamins described by Coursen and Sisler were added from concentrated stock solutions and the entire medium was sterilized by filtration. […]
LEPTNO was grown on potato dextrose agar in 9 cm diameter petri dishes for 7 days. […] The spores were resuspended in copper-minus medium, and the suspension adjusted to 2×10^5 spores per mL Microtiter plates were inoculated with 100 μL of this spore suspension and the plates incubated at 25° C. for 72 h before assessing fungal growth by measuring light scattering in a NepheloStar plate reader. Growth inhibition was determined by comparing growth in the presence of test compound with growth in control wells lacking test compound. […]

## O.O.[Cl][Cu][Cl] [CuCl2, CuCl2.2H2O]
  LEPTNO % Inhn. attributed to copper chloride alone: 7.1 ± 6.0%
